Test results taken from patent publication US10603261B2, “Composition for enhancing hair fiber properties” (The Procter & Gamble Company, priority 2014, dated 2020).

Assay: Combing force after leave-on hair treatment using neat material
Settings: hair treated with neat material; 1 and 5 washes
Source text: This double combing apparatus is attached to an Instron Model 5564. The switch is combed 5 times with a fine-tooth comb and hanged onto the Instron load cell. Then, the hair switch is placed in the double comb apparatus. The Instron pulls the hair vertically at a rate of 10 mm/min until the hair switch clears the final comb. The peak force as the switch passes through the top comb is reported.
The treatment is repeated to two additional switches. The treated hair switches are allowed to rest for 24 hours under controlled temperature and relative humidity conditions (27° C. and 50% RH). After this time period, each hair switch is washed with a clarifying shampoo (see shampoo washing protocol below) and allowed to air dry for 24 hours under controlled temperature and relative humidity conditions (27° C. and 50% RH). The combing force is measured for each switch and an average for the three switches is calculated. […] Linoleic acid • b.
Each application consists of adding shampoo to the hair, milking for 30 seconds followed by rinsing for 30 seconds. Shampoo is then reapplied (0.1 g/g), milked for 30 seconds and rinsed for 30 seconds.

For `CCCCCCCC/C=C\CCCCCCCC(=O)O` [Oleic acid], the “combability (in words)” value was “better combability”.
